From patent US4795743A, “2'-deamino-2'-hydroxyistamycin Bo derivatives of low toxicity” (Zaidan Hojin Biseibutsu Kagaku Kenkyu Kai, priority 1986, dated 1989)
Values after ≈ are worked out from the molar mass of the structure shown. Like-named read-outs stand apart in the source and are kept apart here.

Key:
[1] = system: Staphylococcus aureus 209P; experiment: Antibacterial spectrum, standard serial dilution method of Japan Society of Chemotherapy; type: cell-based; settings: read-out: Minimum Growth Inhibitory Concentration
[2] = system: Staphylococcus aureus Ap 01; experiment: Antibacterial spectrum, standard serial dilution method; type: cell-based; settings: AP01, 18 h, read-out: Minimum Growth Inhibitory Concentration
[3] = system: Staphylococcus epidermidis 109; experiment: as above; type: cell-based; settings: Staphylococcus epidermidis, 109, 18 h, read-out: Minimum Growth Inhibitory Concentration
Sarcina lutea PCI 1001 = experiment: as above; type: cell-based; settings: Micrococcus luteus, read-out: Minimum Growth Inhibitory Concentration
[4] = system: Corynebacterium bovis 1810; experiment: as above; type: cell-based; settings: Corynebacterium bovis 1810; Muller-Hinton medium, 37° C., 18 hours; read-out: Minimum Growth Inhibitory Concentration
Escherichia coli K-12 = experiment: as above; type: cell-based; settings: read-out: Minimum Growth Inhibitory Concentration
[5] = system: Escherichia coli K-12 R388; experiment: as above; type: cell-based; settings: K12R388, 18 h, read-out: Minimum Growth Inhibitory Concentration
[6] = system: Escherichia coli K-12 ML1629; experiment: as above; type: cell-based; settings: K12ML1629, E. coli K-12 ML1629, Muller-Hinton medium, 37° C., 18 hours, read-out: Minimum Growth Inhibitory Concentration
[7] = system: Escherichia coli K-12 ML1630; experiment: as above; type: cell-based; settings: K12ML1630, E. coli K-12 ML1630, Muller-Hinton medium, 37° C., 18 hours, read-out: Minimum Growth Inhibitory Concentration
[8] = system: Escherichia coli K-12 ML1410; experiment: as above; type: cell-based; settings: read-out: Minimum Growth Inhibitory Concentration
[9] = system: Escherichia coli K-12 ML1410 R81; experiment: as above; type: cell-based; settings: K12ML1410R81, 18 h, read-out: Minimum Growth Inhibitory Concentration
[10] = system: Escherichia coli K-12 LA290 R55; experiment: as above; type: cell-based; settings: K12LA290R55, 18 h, read-out: Minimum Growth Inhibitory Concentration
[11] = system: Escherichia coli K-12 LA290 R56; experiment: as above; type: cell-based; settings: K12LA290R56, 18 h, read-out: Minimum Growth Inhibitory Concentration
[12] = system: Escherichia coli K-12 LA290 R64; experiment: as above; type: cell-based; settings: K12LA290R64, 18 h, read-out: Minimum Growth Inhibitory Concentration
Escherichia coli W677 = experiment: as above; type: cell-based; settings: W677, 18 h, read-out: Minimum Growth Inhibitory Concentration
[13] = system: Escherichia coli JR66/W677; experiment: as above; type: cell-based; settings: read-out: Minimum Growth Inhibitory Concentration
Escherichia coli JR225 = experiment: as above; type: cell-based; settings: JR225, 18 h, read-out: Minimum Growth Inhibitory Concentration
[14] = system: Shigella dysernteriae JS11910; experiment: as above; type: cell-based; settings: Muller-Hinton medium, 37° C., 18 hours, read-out: Minimum Growth Inhibitory Concentration
[15] = system: Shibella flexneri 4b JS11811; experiment: as above; type: cell-based; settings: 18 h, read-out: Minimum Growth Inhibitory Concentration
Shigella sonnei = experiment: as above; type: cell-based; settings: Muller-Hinton medium, 37° C., 18 hours, read-out: Minimum Growth Inhibitory Concentration
Salmonella typhi T-63 = experiment: as above; type: cell-based; settings: Salmonella enterica, 18 h, read-out: Minimum Growth Inhibitory Concentration
[16] = system: Salmonella enteritidis 1891; experiment: as above; type: cell-based; settings: Salmonella enterica, Muller-Hinton medium, 37° C., 18 hours, read-out: Minimum Growth Inhibitory Concentration
Proteus vulgaris OX19 = experiment: as above; type: cell-based; settings: read-out: Minimum Growth Inhibitory Concentration
Proteus rettgeri GN466 = experiment: as above; type: cell-based; settings: Providencia rettgeri; Proteus rettgeri GN466; Muller-Hinton medium, 37° C., 18 hours; read-out: Minimum Growth Inhibitory Concentration
Serratia sp. SOU = experiment: as above; type: cell-based; settings: Serratia, 18 h, read-out: Minimum Growth Inhibitory Concentration
Serratia sp. 4 = experiment: as above; type: cell-based; settings: Muller-Hinton medium, 37° C., 18 hours, read-out: Minimum Growth Inhibitory Concentration
[17] = system: Pseudomonas aeruguinosa A3; experiment: as above; type: cell-based, Pseudomonas aeruginosa; settings: Pseudomonas, A3, 18 h, read-out: Minimum Growth Inhibitory Concentration
[18] = system: Pseudomonas aeruguinosa No.12; experiment: as above; type: cell-based, Pseudomonas aeruginosa; settings: Muller-Hinton medium, 37° C., 18 hours, read-out: Minimum Growth Inhibitory Concentration
[19] = system: Pseudomonas aeruguinosa H9; experiment: as above; type: cell-based, Pseudomonas aeruginosa; settings: Pseudomonas aeruguinosa H9; Muller-Hinton medium, 37° C., 18 hours; read-out: Minimum Growth Inhibitory Concentration
[20] = system: Pseudomonas aeruguinosa 99; experiment: as above; type: cell-based, Pseudomonas aeruginosa; settings: Muller-Hinton medium, 37° C., 18 hours, read-out: Minimum Growth Inhibitory Concentration
[21] = system: Pseudomonas aeruguinosa B-13; experiment: as above; type: cell-based, Pseudomonas aeruginosa; settings: B13, Muller-Hinton medium, 37° C., 18 hours, read-out: Minimum Growth Inhibitory Concentration
[22] = system: Pseudomonas aeruguinosa PST1; experiment: as above; type: cell-based, Pseudomonas aeruginosa; settings: Muller-Hinton medium, 37° C., 18 hours, read-out: Minimum Growth Inhibitory Concentration
[23] = system: Pseudomonas aeruguinosa ROS 134/PU21; experiment: as above; type: cell-based, Pseudomonas aeruginosa; settings: ROS134/PU21, 18 h, read-out: Minimum Growth Inhibitory Concentration
mice = experiment: Acute toxicity by intravenous injection in mice; settings: mice, intravenous injection, 200 mg/kg

Structure (SMILES)	MIC [2]	MIC [3]	MIC [4]	MIC [5]	MIC [6]	MIC [7]	MIC [9]	MIC [10]	MIC [11]	MIC [12]	MIC (Escherichia coli W677)	MIC (Escherichia coli JR225)	MIC [14]	MIC [15]	MIC (Shigella sonnei)	MIC (Salmonella typhi T-63)	MIC [16]	MIC (Proteus rettgeri GN466)	MIC (Serratia sp. SOU)	MIC (Serratia sp. 4)	also measured
CNCC1CCC(O)C(OC2C(N)CC(OC)C(N(C)C(=O)CN)C2O)O1 (centres unmarked) [Compound No. 1, 2'-Deamino-2'-hydroxyistamycin B]	6.25 µg/mL (≈ 16 µM)	6.25 µg/mL (≈ 16 µM)	3.13 µg/mL (≈ 8.02 µM)	3.13 µg/mL (≈ 8.02 µM)	6.25 µg/mL (≈ 16 µM)	6.25 µg/mL (≈ 16 µM)	6.25 µg/mL (≈ 16 µM)	6.25 µg/mL (≈ 16 µM)	3.13 µg/mL (≈ 8.02 µM)	3.13 µg/mL (≈ 8.02 µM)	1.56 µg/mL (≈ 4 µM)	3.13 µg/mL (≈ 8.02 µM)	6.25 µg/mL (≈ 16 µM)	12.5 µg/mL (≈ 32 µM)	6.25 µg/mL (≈ 16 µM)	1.56 µg/mL (≈ 4 µM)	6.25 µg/mL (≈ 16 µM)	3.13 µg/mL (≈ 8.02 µM)	6.25 µg/mL (≈ 16 µM)	> 100 µg/mL	MIC ([1]; S. aureus 209P, Muller-Hinton medium, 37° C., 18 hours): 3.13 µg/mL (≈ 8.02 µM); MIC (Sarcina lutea PCI 1001; PCI1001, Sarcina lutea PCI 1001, Muller-Hinton medium, 37° C., 18 hours): 3.13 µg/mL (≈ 8.02 µM); MIC (Escherichia coli K-12; K12, E. coli K-12, Muller-Hinton medium, 37° C., 18 hours): 3.13 µg/mL (≈ 8.02 µM); MIC ([8]; K12ML1410, 18 h): 6.25 µg/mL (≈ 16 µM); MIC ([13]; E. coli JR66/W677, Muller-Hinton medium, 37° C., 18 hours): 3.13 µg/mL (≈ 8.02 µM); MIC (Proteus vulgaris OX19; Proteus vulgaris OX19, Muller-Hinton medium, 37° C., 18 hours): 3.13 µg/mL (≈ 8.02 µM); MIC [17]: 6.25 µg/mL (≈ 16 µM); MIC [18]: 100 µg/mL (≈ 256 µM); MIC [19]: > 100 µg/mL; MIC [20]: > 100 µg/mL; MIC [21]: > 100 µg/mL; MIC [22]: 100 µg/mL (≈ 256 µM); MIC [23]: > 100 µg/mL; acute toxicity (survival, symptoms) (mice): survived without showing any sympton of toxicity
CNCC1CCC(O)C(OC2C(N)CC(OC)C(N(C)C(=O)CCN)C2O)O1 (stereo not drawn) [Compound No. 3, 4-N-(β-Alanyl)-2'-deamino-2'-hydroxyistamycin Bo]	6.25 µg/mL (≈ 15.5 µM)	3.13 µg/mL (≈ 7.74 µM)	12.5 µg/mL (≈ 30.9 µM)	3.13 µg/mL (≈ 7.74 µM)	6.25 µg/mL (≈ 15.5 µM)	12.5 µg/mL (≈ 30.9 µM)	25 µg/mL (≈ 61.8 µM)	12.5 µg/mL (≈ 30.9 µM)	3.13 µg/mL (≈ 7.74 µM)	3.13 µg/mL (≈ 7.74 µM)	3.13 µg/mL (≈ 7.74 µM)	3.13 µg/mL (≈ 7.74 µM)	3.13 µg/mL (≈ 7.74 µM)	6.25 µg/mL (≈ 15.5 µM)	6.25 µg/mL (≈ 15.5 µM)	1.56 µg/mL (≈ 3.86 µM)	6.25 µg/mL (≈ 15.5 µM)	0.78 µg/mL (≈ 1.93 µM)	3.13 µg/mL (≈ 7.74 µM)	100 µg/mL (≈ 247 µM)	MIC ([1]; 209P, 18 h): 6.25 µg/mL (≈ 15.5 µM); MIC (Sarcina lutea PCI 1001; PCI1001, 18 h): 3.13 µg/mL (≈ 7.74 µM); MIC (Escherichia coli K-12; K12, 18 h): 3.13 µg/mL (≈ 7.74 µM); MIC ([8]; K12ML1410, E. coli K-12 ML1410, Muller-Hinton medium, 37° C., 18 hours): 12.5 µg/mL (≈ 30.9 µM); MIC ([13]; JR66/W677, 18 h): 6.25 µg/mL (≈ 15.5 µM); MIC (Proteus vulgaris OX19; Proteus vulgaris, OX19, 18 h): 3.13 µg/mL (≈ 7.74 µM); MIC [17]: 3.13 µg/mL (≈ 7.74 µM); MIC [18]: 100 µg/mL (≈ 247 µM); MIC [19]: 50 µg/mL (≈ 124 µM); MIC [20]: > 100 µg/mL; MIC [21]: 100 µg/mL (≈ 247 µM); MIC [22]: 100 µg/mL (≈ 247 µM); MIC [23]: > 100 µg/mL; acute toxicity (survival, symptoms) (mice): survived without showing any sympton of toxicity
